Measured values from ChEMBL document CHEMBL3879881, “Substituted pyrazolyl compounds for the treatment of inflammation” (2005).

These molecules were tested against T1, Inhibitor of nuclear factor kappa-B kinase subunit beta (Homo sapiens, UniProt O14920) (assay: Inhibition of human recombinant C-terminal FLAG-epitope-tagged IKK2 expressed in baculovirus using biotinylated IkappaBalpha peptide as substrate assessed as decrease in [gamma-33P]-ATP incorporation in substrate after 30 mins by scintillation counting method).
T1 sequence (O14920 whole entry): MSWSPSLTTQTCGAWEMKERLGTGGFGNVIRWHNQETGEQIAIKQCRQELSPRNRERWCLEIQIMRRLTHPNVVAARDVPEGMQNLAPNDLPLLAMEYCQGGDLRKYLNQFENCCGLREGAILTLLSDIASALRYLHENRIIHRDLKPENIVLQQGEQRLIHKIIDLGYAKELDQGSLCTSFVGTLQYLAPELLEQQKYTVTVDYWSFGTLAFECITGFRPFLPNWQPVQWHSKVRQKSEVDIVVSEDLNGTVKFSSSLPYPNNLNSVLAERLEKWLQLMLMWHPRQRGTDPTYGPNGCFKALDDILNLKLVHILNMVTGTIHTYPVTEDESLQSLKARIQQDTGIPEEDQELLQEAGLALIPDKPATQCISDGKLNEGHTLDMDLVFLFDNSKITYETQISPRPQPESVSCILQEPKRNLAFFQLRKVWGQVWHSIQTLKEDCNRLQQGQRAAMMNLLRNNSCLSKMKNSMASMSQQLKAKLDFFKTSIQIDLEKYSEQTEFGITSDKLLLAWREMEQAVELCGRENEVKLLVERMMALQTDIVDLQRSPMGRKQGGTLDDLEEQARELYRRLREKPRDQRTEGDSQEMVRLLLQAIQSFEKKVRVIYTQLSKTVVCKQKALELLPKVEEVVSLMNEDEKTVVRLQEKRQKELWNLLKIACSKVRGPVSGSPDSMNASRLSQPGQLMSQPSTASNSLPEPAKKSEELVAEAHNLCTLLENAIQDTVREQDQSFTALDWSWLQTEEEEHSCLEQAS

| SMILES | IC50 [nM] |
| --- | --- |
| NC(=O)c1nn(-c2ccc(-c3cccc(C(=O)O)c3)cc2)c2c1CCc1ccc(NC(=O)c3ccccc3Cl)cc1-2 | 1000 to 10000 |
| NC(=O)c1nn(-c2cc(F)cc(F)c2)c2c1CCc1ccc(NC(=O)c3cccc(Cl)c3Cl)cc1-2 | 1000 to 10000 |
| NC(=O)c1nn(-c2ccc(O)cc2)c2c1CCc1ccc(NC(=O)c3cc4c(cc3Cl)OCO4)cc1-2 | ≤ 1000 |
| NC(=O)c1nn(-c2ccc(OCC(O)CO)cc2)c2c1CCc1ccc(NC(=O)c3cccnc3Cl)cc1-2 (centres undefined) | ≤ 1000 |
| CC(=O)Oc1cccc(C(=O)Nc2ccc3c(c2)-c2c(c(C(N)=O)nn2-c2cccc(F)c2)CC3)c1C | 1000 to 10000 |
| NC(=O)c1nn(-c2ccc(/C=C3\CCOC3=O)cc2)c2c1CCc1ccc(NC(=O)c3ccccc3Cl)cc1-2 | 1000 to 10000 |
| CN(C)CCOc1ccc(-n2nc(C(N)=O)c3c2-c2cc(NC(=O)c4ccccc4Cl)ccc2CC3)cc1 | 1000 to 10000 |
| NC(=O)c1nn(-c2cccc([N+](=O)[O-])c2)c2c1CCc1ccc(NC(=O)c3ccccc3Cl)cc1-2 | 1000 to 10000 |
| NC(=O)c1nn(-c2ccc(C(F)(F)F)cc2)c2c1CCc1ccc(NC(=O)c3ccccc3Cl)cc1-2 | 1000 to 10000 |
| CN(C)C(=O)/C=C/c1ccc(-n2nc(C(N)=O)c3c2-c2cc(NC(=O)c4cccnc4Cl)ccc2CC3)cc1 | 1000 to 10000 |
| CS(=O)(=O)Nc1ccc2c(c1)-c1c(c(C(N)=O)nn1-c1ccccc1)CC2 | 1000 to 10000 |
| CNC(=O)/C=C/c1ccc(-n2nc(C(N)=O)c3c2-c2cc(N)ccc2CC3)cc1 | 1000 to 10000 |
| NC(=O)c1nn(-c2cccc(F)c2)c2c1CCc1ccc(NC(=O)c3cccc(Cl)c3Cl)cc1-2 | 1000 to 10000 |
| NC(=O)c1nn(-c2ccc(C(=O)O)cc2)c2c1CCc1ccc(NC(=O)c3ccccc3Cl)cc1-2 | 1000 to 10000 |
| CN(C)C(=O)/C=C/c1ccc(-n2nc(C(N)=O)c3c2-c2cc(NS(C)(=O)=O)ccc2CC3)cc1 | 1000 to 10000 |
| NC(=O)c1nn(-c2cccc(Cl)c2)c2c1CCc1ccc(NC(=O)c3ccccc3Cl)cc1-2 | ≤ 1000 |
| NC(=O)c1nn(-c2ccc(-c3cccnc3)cc2)c2c1CCc1ccc(NC(=O)c3ccccc3Cl)cc1-2 | 1000 to 10000 |
| NC(=O)c1nn(-c2ccc(-c3cccc(CO)c3)cc2)c2c1CCc1ccc(NC(=O)c3ccccc3Cl)cc1-2 | 1000 to 10000 |
| CC1(C)OCC(COc2ccc(-n3nc(C(N)=O)c4c3-c3cc(NC(=O)c5ccc(S(C)(=O)=O)cc5Cl)ccc3CC4)cc2)O1 (centres undefined) | 1000 to 10000 |
| CS(=O)(=O)Nc1ccc2c(c1)-c1c(c(C(N)=O)nn1-c1cccc(O)c1)CC2 | 1000 to 10000 |

| SMILES | IC50 [nM] |
| --- | --- |
| NC(=O)/C=C/c1ccc(-n2nc(C(N)=O)c3c2-c2cc(NC(=O)c4cccnc4Cl)ccc2CC3)cc1 | ≤ 1000 |
| Cc1ccccc1C(=O)Nc1ccc2c(c1)-c1c(c(C(N)=O)nn1-c1ccc(Br)cc1)CC2 | ≤ 1000 |
| CC(=O)/C=C/c1ccc(-n2nc(C(N)=O)c3c2-c2cc(NC(=O)c4ccccc4Cl)ccc2CC3)cc1 | ≤ 1000 |
| CS(=O)(=O)c1ccc(C(=O)Nc2ccc3c(c2)-c2c(c(C(N)=O)nn2-c2ccc(OCC(O)CO)cc2)CC3)c(Cl)c1 (centres undefined) | ≤ 1000 |
| C[S+]([O-])c1ccc(Cl)c(C(=O)Nc2ccc3c(c2)-c2c(c(C(N)=O)nn2-c2ccc(O)cc2)CC3)c1 (centres undefined) | ≤ 1000 |
| CC1(C)OCC(COc2ccc(-n3nc(C(N)=O)c4c3-c3cc(NC(=O)c5ccccc5Cl)ccc3CC4)cc2)O1 (centres undefined) | ≤ 1000 |
| CNC(=O)/C=C/c1ccc(-n2nc(C(N)=O)c3c2-c2cc(NS(C)(=O)=O)ccc2CC3)cc1 | ≤ 1000 |
| NC(=O)c1nn(-c2ccc(OCC(O)CO)cc2)c2c1CCc1ccc(NC(=O)c3cc(N)ccc3Cl)cc1-2 (centres undefined) | ≤ 1000 |
| CC(=O)CCc1ccc(-n2nc(C(N)=O)c3c2-c2cc(NS(C)(=O)=O)ccc2CC3)cc1 | 1000 to 10000 |
| CN(C)CCCOc1ccc(-n2nc(C(N)=O)c3c2-c2cc(NC(=O)c4ccccc4Cl)ccc2CC3)cc1 | 1000 to 10000 |
| NC(=O)c1nn(-c2ccc(-c3ccc(C(=O)O)cc3)cc2)c2c1CCc1ccc(NC(=O)c3ccccc3Cl)cc1-2 | 1000 to 10000 |
| COc1ccc(-c2ccc(-n3nc(C(N)=O)c4c3-c3cc(NC(=O)c5ccccc5Cl)ccc3CC4)cc2)cc1OC | 1000 to 10000 |
| NC(=O)c1nn(-c2ccc(O)cc2)c2c1CCc1ccc(NC(=O)c3cc([N+](=O)[O-])ccc3Cl)cc1-2 | ≤ 1000 |
| NC(=O)c1nn(-c2cc(F)cc(F)c2)c2c1CCc1ccc(NC(=O)c3ccccc3Cl)cc1-2 | ≤ 1000 |
| NC(=O)c1nn(-c2cccnc2)c2c1CCc1ccc(NC(=O)c3ccccc3Cl)cc1-2 | 1000 to 10000 |
| CN(C)C/C=C/c1ccc(-n2nc(C(N)=O)c3c2-c2cc(NC(=O)c4ccccc4Cl)ccc2CC3)cc1 | 1000 to 10000 |
| Cc1cccc(-n2nc(C(N)=O)c3c2-c2cc(NC(=O)c4ccccc4Cl)ccc2CC3)c1 | ≤ 1000 |
| NC(=O)c1nn(-c2ccc(Cl)cc2)c2c1CCc1ccc(NC(=O)c3ccccc3Cl)cc1-2 | ≤ 1000 |
| NC(=O)c1nn(-c2ccc(Cl)c(Cl)c2)c2c1CCc1ccc(NC(=O)c3ccccc3Cl)cc1-2 | 1000 to 10000 |
| NC(=O)c1nn(-c2ccc(OC(F)(F)F)cc2)c2c1CCc1ccc(NC(=O)c3ccccc3Cl)cc1-2 | 1000 to 10000 |

| SMILES | IC50 [nM] |
| --- | --- |
| CC(C)(O)/C=C/c1ccc(-n2nc(C(N)=O)c3c2-c2cc(NC(=O)c4cccnc4Cl)ccc2CC3)cc1 | 1000 to 10000 |
| NC(=O)c1nn(-c2ccc(CCCO)cc2)c2c1CCc1ccc(NC(=O)c3cccnc3Cl)cc1-2 | ≤ 1000 |
| NC(=O)c1nn(-c2ccc(/C=C/C(=O)NCc3ccccc3)cc2)c2c1CCc1ccc(NC(=O)c3ccccc3Cl)cc1-2 | 1000 to 10000 |
| CC(C)c1ccc(-n2nc(C(N)=O)c3c2-c2cc(NC(=O)c4ccccc4Cl)ccc2CC3)cc1 | 1000 to 10000 |
| NC(=O)c1nn(-c2ccc(-c3cccc(N)c3)cc2)c2c1CCc1ccc(NC(=O)c3ccccc3Cl)cc1-2 | 1000 to 10000 |
| CC1(C)OCC(COc2ccc(-n3nc(C(N)=O)c4c3-c3cc(NC(=O)c5cccnc5Cl)ccc3CC4)cc2)O1 (centres undefined) | 1000 to 10000 |
| CC1(C)OCC(COc2ccc(-n3nc(C(N)=O)c4c3-c3cc(NC(=O)c5ccncc5Cl)ccc3CC4)cc2)O1 (centres undefined) | 1000 to 10000 |
| NC(=O)c1nn(-c2ccc(-c3ccoc3)cc2)c2c1CCc1ccc(NC(=O)c3ccccc3Cl)cc1-2 | 1000 to 10000 |
| NC(=O)c1nn(-c2ccc(OCc3ccccc3)cc2)c2c1CCc1ccc(NC(=O)c3cccnc3Cl)cc1-2 | 1000 to 10000 |
| NC(=O)c1nn(-c2ccc(OCC(O)CO)cc2)c2c1CCc1ccc(NC(=O)c3ccccc3Cl)cc1-2 (centres undefined) | ≤ 1000 |
| NC(=O)c1nn(-c2ccc(C(F)(F)F)cc2)c2c1CCc1ccc(N)cc1-2 | 1000 to 10000 |
| CCOC(=O)/C=C/c1ccc(-n2nc(C(N)=O)c3c2-c2cc(NC(=O)c4ccccc4Cl)ccc2CC3)cc1 | 1000 to 10000 |
| NC(=O)c1nn(-c2ccc(OCC(O)CO)cc2)c2c1CCc1ccc(NC(=O)c3ccncc3Cl)cc1-2 (centres undefined) | ≤ 1000 |
| NC(=O)c1nn(-c2cccc(F)c2)c2c1CCc1ccc(NC(=O)c3cccc(F)c3F)cc1-2 | 1000 to 10000 |
| NC(=O)c1nn(-c2cccc(O)c2)c2c1CCc1ccc(NC(=O)c3cc(N)ccc3Cl)cc1-2 | ≤ 1000 |
| CN(C)CCN(C)c1cc(C(=O)Nc2ccc3c(c2)-c2c(c(C(N)=O)nn2-c2ccc(F)cc2)CC3)c(Cl)cn1 | ≤ 1000 |
| CN1CCCN(c2cc(C(=O)Nc3ccc4c(c3)-c3c(c(C(N)=O)nn3-c3ccc(F)cc3)CC4)c(Cl)cn2)CC1 | ≤ 1000 |
| CN1CCN(c2cc(C(=O)Nc3ccc4c(c3)-c3c(c(C(N)=O)nn3-c3ccc(F)cc3)CC4)c(Cl)cn2)CC1 | ≤ 1000 |
| NC(=O)c1nn(-c2ccc(F)cc2)c2c1CCc1ccc(NC(=O)c3nc(N4CCOCC4)ccc3Cl)cc1-2 | 1000 to 10000 |
